We go through 15 molecules from ChEMBL document CHEMBL1152252, “Synthesis, biological evaluation, structural-activity relationship, and docking study for a series of benzoxepin-derived estrogen receptor modulators” (Bioorg Med Chem, 2008).

Test [1] concerns MCF7. The test is described as follows: Antiproliferative activity against estrogen receptor dependent human MCF7 cells at 10 uM after 72 hrs by LDH assay. The format is functional.
In test [2] the test system is MCF7. The test is described as follows: Antiproliferative activity against estrogen receptor dependent human MCF7 cells after 72 hrs by MTT assay. It is filed as functional, cell-based. The note with it: MCF7, 72 h. In general terms: Tetrazolium assays rely on reduction of a dye to a coloured formazan, in cell work by metabolically active cells.
For test [3], the system named is Ishikawa. Briefly: Estrogenic stimulatory activity in human Ishikawa cells assessed as alkaline phosphatase activity at 1 uM after 72 hrs in absence of estradiol. It is filed as functional.
In test [4] the test system is MDA-MB-231. The test is described as follows: Antiproliferative activity against hormone independent human MDA-MB-231 cells upto 100 nM after 72 hrs by MTT assay. The format is functional, cell-based.
In the next test the target is T1, Estrogen receptor (Homo sapiens, UniProt P03372).
T1 sequence (P03372 whole entry): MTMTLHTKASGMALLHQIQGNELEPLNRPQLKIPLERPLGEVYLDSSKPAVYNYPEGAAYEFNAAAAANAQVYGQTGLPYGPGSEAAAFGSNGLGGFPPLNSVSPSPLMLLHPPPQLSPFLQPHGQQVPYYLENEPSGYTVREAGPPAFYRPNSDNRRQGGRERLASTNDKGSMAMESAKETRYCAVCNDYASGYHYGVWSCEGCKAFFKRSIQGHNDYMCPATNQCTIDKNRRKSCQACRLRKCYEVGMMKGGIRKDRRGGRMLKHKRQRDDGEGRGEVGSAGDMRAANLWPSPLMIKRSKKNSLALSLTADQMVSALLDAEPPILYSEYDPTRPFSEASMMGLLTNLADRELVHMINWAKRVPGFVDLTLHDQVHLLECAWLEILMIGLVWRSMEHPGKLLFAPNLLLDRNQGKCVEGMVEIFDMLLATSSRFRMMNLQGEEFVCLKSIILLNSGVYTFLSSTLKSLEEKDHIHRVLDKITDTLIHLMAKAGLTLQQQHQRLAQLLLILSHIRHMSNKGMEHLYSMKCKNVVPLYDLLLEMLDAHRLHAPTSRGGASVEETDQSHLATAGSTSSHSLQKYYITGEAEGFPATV
Briefly: biochemical.

In test [5] the test system is MDA-MB-231. The test is described as follows: Antiproliferative activity against hormone independent human MDA-MB-231 cells after 72 hrs by MTT assay. It is filed as functional, cell-based. The conditions noted are these: MDA-MB-231, 72 h.
The target in a further test is Estrogen receptor beta (Homo sapiens, UniProt Q92731). Briefly: biochemical.
Estrogen receptor beta, sequence (Q92731 whole entry): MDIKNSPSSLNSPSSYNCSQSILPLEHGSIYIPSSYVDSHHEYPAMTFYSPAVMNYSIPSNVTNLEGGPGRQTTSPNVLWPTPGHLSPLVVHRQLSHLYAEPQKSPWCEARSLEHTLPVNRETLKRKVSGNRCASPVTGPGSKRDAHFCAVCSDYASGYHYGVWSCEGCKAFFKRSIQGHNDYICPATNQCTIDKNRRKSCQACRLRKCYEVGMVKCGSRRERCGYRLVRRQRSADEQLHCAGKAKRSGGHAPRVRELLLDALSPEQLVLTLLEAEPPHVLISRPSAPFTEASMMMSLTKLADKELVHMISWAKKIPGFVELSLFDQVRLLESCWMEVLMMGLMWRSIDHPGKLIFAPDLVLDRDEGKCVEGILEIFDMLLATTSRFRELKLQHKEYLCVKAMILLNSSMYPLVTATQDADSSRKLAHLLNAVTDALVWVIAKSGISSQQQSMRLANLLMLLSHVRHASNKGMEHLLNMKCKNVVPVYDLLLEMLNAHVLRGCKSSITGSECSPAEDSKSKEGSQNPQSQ
Test [6] has as its system Ishikawa. The test is described as follows: Antiestrogenic activity in human Ishikawa cells assessed as inhibition of estrogen-induced alkaline phosphatase activity after 72 hrs. The format is functional, cell-based.

Calls of active or inactive are those of the source. No cut-off for these calls is given here.

Description for Estrogen receptor beta: Displacement of fluorescein labeled estradiol from human recombinant ERbeta expressed in baculovirus infected insect cells by fluorescence polarization assay

`COc1ccc2c(c1)OCCC=C2c1ccc(O)cc1` showed an Activity with MCF7 [1] of 17%.
The IC50 is the midpoint of a concentration-inhibition curve. `CC/C(=C(\c1ccccc1)c1ccc(OCCN(C)C)cc1)c1ccccc1` [TAMOXIFEN]: the half-inhibitory concentration (IC50) in the test with MCF7 [2] turned out to be 4120 nM. The Activity with Ishikawa [3] is on record as 16.5%. Further, the result in the test on MDA-MB-231 [4] was inactive.
On to `Oc1ccc(C2=C(c3ccc(OCCN4CCCC4)cc3)c3ccc(F)cc3OCC2)cc1`, for which the IC50 worked out at 10.4 nM against Estrogen receptor; 6.75 µM with MDA-MB-231 [5]; 0.7 nM on Estrogen receptor beta; 21.4 nM in the test on MCF7 [2]; 194 nM in the test with Ishikawa [6]. For the same molecule, in the test on Ishikawa [3], the Activity worked out at 9.7%. Further, in the test on MDA-MB-231 [4], the result was inactive.
In the test on MCF7 [2], `CN(C)CCOc1ccc(C2=C(c3cccs3)CCOc3ccccc32)cc1` displayed an IC50 of 16700 nM. In the test on MDA-MB-231 [4], the result was inactive.
In the case of `Fc1ccc(C2=C(c3ccc(OCCN4CCCC4)cc3)c3ccc(F)cc3OCC2)cc1`, the concentration for half-maximal inhibition (IC50) at Estrogen receptor was 126 nM; at Estrogen receptor beta, 262 nM; with MCF7 [2] it was 450 nM. In addition, in the test with MDA-MB-231 [4], the result was inactive.
Consider `Fc1ccc2c(c1)OCCC(c1ccccc1)=C2c1ccc(OCCN2CCCC2)cc1`, for which the IC50 on Estrogen receptor stood at 16.2 nM; against Estrogen receptor beta, 31 nM; with MCF7 [2], 1870 nM. For the same molecule, in the test with MDA-MB-231 [4], the outcome was inactive.
`Oc1ccc(C2=CCCOc3ccccc32)cc1` yielded an Activity with MCF7 [1] of 17%.
In the test with MCF7 [2], `CCC(=C(c1ccc(O)cc1)c1ccc(OCCN(C)C)cc1)c1ccccc1` yielded a concentration for half-maximal inhibition (IC50) of 107 nM. Moreover, the result in the test on MDA-MB-231 [4] was inactive.
`Oc1ccc(C2=C(c3ccc(OCCN4CCCCC4)cc3)c3ccc(F)cc3OCC2)cc1`: the half-maximal inhibitory concentration (IC50) is 6.5 nM against Estrogen receptor, 8.78 nM at Estrogen receptor beta and 156 nM with MCF7 [2]. Further, the result in the test with MDA-MB-231 [4] was inactive.
Consider `Oc1cccc(C2=C(c3ccc(OCCN4CCCC4)cc3)c3ccc(F)cc3OCC2)c1`, for which the 50% inhibitory concentration (IC50) stood at 14 nM against Estrogen receptor, 6 nM against Estrogen receptor beta and 359 nM in the test with MCF7 [2]. Besides, in the test on MDA-MB-231 [4], the outcome was inactive.
`CS(=O)(=O)c1ccc(C2=C(c3ccc(OCCN4CCCC4)cc3)c3ccc(F)cc3OCC2)cc1`: the half-inhibitory concentration (IC50) was greater than 15000 nM against Estrogen receptor, greater than 15000 nM against Estrogen receptor beta and 4560 nM with MCF7 [2]. Moreover, the outcome in the test on MDA-MB-231 [4] was inactive.
For the molecule `c1ccc(C2=C(c3ccc(OCCN4CCCC4)cc3)c3ccccc3OCC2)cc1`, the Activity with MCF7 [1] was 8%. Moreover, inhibition with MCF7 [2] was half-maximal at 1580 nM (IC50). Moreover, the outcome in the test with MDA-MB-231 [4] was inactive.
With `Oc1ccc(C2=C(c3ccc(OCCN4CCCC4)cc3)CCOc3cc(F)ccc32)cc1`, the half-inhibitory concentration (IC50) at Estrogen receptor came out at 5.57 nM; on Estrogen receptor beta, 17.3 nM; in the test on MCF7 [2], 6500 nM; in the test on Ishikawa [6] it was 216 nM. Also, the Activity in the test with Ishikawa [3] is on record as 23%. For the same molecule, in the test with MDA-MB-231 [4], the outcome was inactive.
`COc1ccc2c(c1)OCCC(c1ccc(O)cc1)=C2c1ccc(OCCN2CCCCC2)cc1` yielded an IC50 with MCF7 [2] of 1540 nM. In addition, in the test on MDA-MB-231 [4], the result was inactive.
With `Oc1ccc(C2=C(c3ccc(OCCN4CCCC4)cc3)c3ccc(O)cc3OCC2)cc1`, the half-maximal inhibitory concentration (IC50) at Estrogen receptor is 8.4 nM; in the test on MDA-MB-231 [5], 2.6 µM; against Estrogen receptor beta, 2.9 nM; in the test with MCF7 [2] it was 11.9 nM; in the test with Ishikawa [6], 20.8 nM. For the same molecule, the Activity in the test with MCF7 [1] worked out at 11%; with Ishikawa [3] it was 6%. In the test with MDA-MB-231 [4], the result was inactive.
